Tests used:
E. coli DHB4 [1] = test: E. coli growth curves in 15 ml tubes, OD600 nm; type: cell-based, Escherichia coli; conditions: 40 μM ebselen or 5 μM Ag^+ alone
Procedure: The large scale growth inhibition of E. coli by Ag^+ with ebselen in combination was also observed in shaking testing 15 ml tubes. […] PI is a membrane-impermeable fluorescent dye that has been widely used to detect permeation of cell membrane and dead cells.
E. coli DHB4 cells were grown in 15 ml tubes until an OD600 nm of 0.4, and treated with 5 μM AgNO3 and serial concentration of ebselen (0, 20, 40, 80 μM) in combination. The survival of untreated E. coli was compared with the antibiotic-treated cells by measuring OD600 nm and counting the colonies. For colony formation assay, cells were harvested at 10 min, 1 h, 2 h, and 4 h by centrifugation at 6,000 rpm for 5 min and thoroughly washed 3 times with PBS. The cells were serially diluted in PBS, and 100 μl cultures were plated on LB plates. The colonies were counted after overnight incubation, and CFU/ml was calculated using the following formula: [(colonies)*(dilution factor)]/(amount plated).

GSH = GSH amount in treated E. coli cell extracts, GR-coupled DTNB reduction; type: cell-based, Escherichia coli; conditions: 5 μM Ag^+ alone or 20 μM ebselen alone; compared with control
E. coli DHB4 [2] = test: E. coli DHB4 growth in micro-well plates, OD600 nm, 16 h; type: cell-based, Escherichia coli; conditions: 16 h treatment
Procedure: The effect of silver nitrate with ebselen in combination on the growth of Gram-negative model bacteria, E. coli, was investigated in the microplates. DHB4 overnight cultures were diluted 1:1000 times in Luria-Bertani (LB) medium, and treated with ionic silver (Ag^+) as a nitrate salt (AgNO3) for 16 h.
E. coli DHB4 cells overnight cultures were diluted 1:1000 times in Luria-Bertani (LB) medium and treated with serial concentrations of AgNO3 and/or ebselen for 16 h. The cell viability was determined by measuring the absorbance at 600 nm. The culture treated with 0.8% (v/v) DMSO was used as a control.
E. coli DHB4 cells were grown until an OD600 nm of 0.4, and treated with serial dilutions of ebselen (0, 2, 4, 8 μM) for 16 h. The cell viability was determined by measuring the absorbance at 600 nm. The culture treated with 0.8% (v/v) DMSO was used as a control.

E. coli DHB4 gor^− = test: microbe, parasite or virus in culture; type: cell-based, Escherichia coli; conditions: 24 h
Procedure: (§1) Since Trx and GSH/Grx are major thiol-dependent systems, investigated were the effects of Ag^+ with ebselen in combination on Trx or GSH system-deficient E. coli redox mutants.
(§2) Serial dilutions of ebselen and AgNO3 were added to the individual wells. The minimum inhibitory concentration (MIC) was determined after 24 h culture at 37° C.

[3] = system: E. coli DHB4 trxA^−gshA^−; test: microbe, parasite or virus in culture; type: cell-based, Escherichia coli; conditions: trxA^−gshA^−, 24 h
Procedure: as §1, §2

E. coli DHB4 trxA^− = test: microbe, parasite or virus in culture; type: cell-based, Escherichia coli; conditions: 24 h
Procedure: as §1, §2

E. coli DHB4 gshA^− = test: microbe, parasite or virus in culture; type: cell-based, Escherichia coli; conditions: gshA^−, 24 h
Procedure: as §1, §2

[4] = system: E. coli DHB4 gor^−grxA^−B^−C^−; test: microbe, parasite or virus in culture; type: cell-based, Escherichia coli; conditions: 24 h
Procedure: as §1, §2

[5] = system: E. coli DHB4 grxA^−trxA^−; test: microbe, parasite or virus in culture; type: cell-based, Escherichia coli; conditions: 24 h
Procedure: as §1, §2

[6] = system: E. coli DHB4 trxA^−B^−C^−; test: microbe, parasite or virus in culture; type: cell-based, Escherichia coli; conditions: 24 h
Procedure: as §1, §2

E. coli DHB4 trxB^− = test: microbe, parasite or virus in culture; type: cell-based, Escherichia coli; conditions: 24 h
Procedure: as §1, §2

E. coli DHB4 trxC^− = test: microbe, parasite or virus in culture; type: cell-based, Escherichia coli; conditions: trxC^−, 24 h
Procedure: as §1, §2

E. coli Trx = biological target: T1, E. coli Trx (Escherichia coli, UniProt P0AA25); type: cell-based; conditions: Ag^+ or ebselen alone
T1 construct: endogenous in cells; host or cells: E. coli DHB4

E. coli DHB4 oxyR^− = test: microbe, parasite or virus in culture; type: cell-based, Escherichia coli; conditions: oxyR^−, 24 h
Procedure: as §1
One major function of GSH and Trx systems is to scavenge ROS to keep cellular redox balance and protect against oxidative stress. The inhibition of the Trx system and depletion of GSH may responsible for the elevation of ROS.
as §2

E. coli DHB4 WT = test: MIC of silver and ebselen on E. coli DHB4 redox phenotypes; type: cell-based, Escherichia coli; conditions: 24 h
Procedure: as §1, §2

T1 sequence (P0AA25 2-109): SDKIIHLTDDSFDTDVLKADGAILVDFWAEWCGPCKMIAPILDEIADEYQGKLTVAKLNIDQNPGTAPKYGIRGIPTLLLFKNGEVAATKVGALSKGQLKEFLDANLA

O=[N+]([O-])[O-].[Ag+] [silver, silver nitrate]
E. coli growth (OD600 nm) (E. coli DHB4 [1]): did not inhibit bacterial growth
GSH levels (GSH): neither 5 μM Ag^+ nor 20 μM ebselen modulated GSH levels
minimal inhibition concentration (MIC) of Ag^+ (E. coli DHB4 [2]; Ag^+ alone): 42 µM
MIC of Ag^+ (E. coli DHB4 [2]; with 2 μM ebselen): 4.2 µM
MIC of silver in the presence of ebselen (E. coli DHB4 gor^−; Ebselen 0 μM): 40 µM
MIC of silver in the presence of ebselen (E. coli DHB4 gor^−; Ebselen 1 μM): 10 µM
MIC of silver in the presence of ebselen (E. coli DHB4 gor^−; Ebselen 2 μM): 5 µM
MIC of silver in the presence of ebselen (E. coli DHB4 gor^−; Ebselen 4 μM): 1.25 µM
MIC of silver in the presence of ebselen ([3]; Ebselen 0 μM): 20 µM
MIC of silver in the presence of ebselen ([3]; Ebselen 1 μM): 5 µM
MIC of silver in the presence of ebselen ([3]; Ebselen 2 μM): 2.5 µM
MIC of silver in the presence of ebselen ([3]; Ebselen 4 μM): 0.625 µM
MIC of silver in the presence of ebselen (E. coli DHB4 trxA^−; Ebselen 0 μM): 40 µM
MIC of silver in the presence of ebselen (E. coli DHB4 trxA^−; Ebselen 1 μM): 10 µM
MIC of silver in the presence of ebselen (E. coli DHB4 trxA^−; Ebselen 2 μM): 2.5 µM
MIC of silver in the presence of ebselen (E. coli DHB4 trxA^−; Ebselen 4 μM): 1.25 µM
MIC of silver in the presence of ebselen (E. coli DHB4 gshA^−; Ebselen 0 μM): 20 µM
MIC of silver in the presence of ebselen (E. coli DHB4 gshA^−; Ebselen 1 μM): 5 µM
MIC of silver in the presence of ebselen (E. coli DHB4 gshA^−; Ebselen 2 μM): 2.5 µM
MIC of silver in the presence of ebselen (E. coli DHB4 gshA^−; Ebselen 4 μM): 0.625 µM
MIC of silver in the presence of ebselen ([4]; Ebselen 0 μM): 20 µM
MIC of silver in the presence of ebselen ([4]; Ebselen 1 μM): 10 µM
MIC of silver in the presence of ebselen ([4]; Ebselen 2 μM): 2.5 µM
MIC of silver in the presence of ebselen ([4]; Ebselen 4 μM): 0.625 µM
MIC of silver in the presence of ebselen ([5]; Ebselen 0 μM): 20 µM
MIC of silver in the presence of ebselen ([5]; Ebselen 1 μM): 10 µM
MIC of silver in the presence of ebselen ([5]; Ebselen 2 μM): 2.5 µM
MIC of silver in the presence of ebselen ([5]; Ebselen 4 μM): 0.625 µM
MIC of silver in the presence of ebselen ([6]; Ebselen 0 μM): 40 µM
MIC of silver in the presence of ebselen ([6]; Ebselen 1 μM): 10 µM
MIC of silver in the presence of ebselen ([6]; Ebselen 2 μM): 2.5 µM
MIC of silver in the presence of ebselen ([6]; Ebselen 4 μM): 1.25 µM
MIC of silver in the presence of ebselen (E. coli DHB4 trxB^−; Ebselen 0 μM): 40 µM
MIC of silver in the presence of ebselen (E. coli DHB4 trxB^−; Ebselen 1 μM): 10 µM
MIC of silver in the presence of ebselen (E. coli DHB4 trxB^−; Ebselen 2 μM): 2.5 µM
MIC of silver in the presence of ebselen (E. coli DHB4 trxB^−; Ebselen 4 μM): 0.625 µM
MIC of silver in the presence of ebselen (E. coli DHB4 trxC^−; Ebselen 0 μM): 40 µM
MIC of silver in the presence of ebselen (E. coli DHB4 trxC^−; Ebselen 1 μM): 10 µM
MIC of silver in the presence of ebselen (E. coli DHB4 trxC^−; Ebselen 2 μM): 5 µM
MIC of silver in the presence of ebselen (E. coli DHB4 trxC^−; Ebselen 4 μM): 1.25 µM
Trx activities in cell extracts (E. coli Trx): not influenced
MIC of silver in the presence of ebselen (E. coli DHB4 oxyR^−; Ebselen 0 μM): 20 µM
MIC of silver in the presence of ebselen (E. coli DHB4 oxyR^−; Ebselen 1 μM): 5 µM
MIC of silver in the presence of ebselen (E. coli DHB4 oxyR^−; Ebselen 2 μM): 1.25 µM
MIC of silver in the presence of ebselen (E. coli DHB4 oxyR^−; Ebselen 4 μM): 0.625 µM
MIC of silver in the presence of ebselen (E. coli DHB4 WT; Ebselen 0 μM): 40 µM
MIC of silver in the presence of ebselen (E. coli DHB4 WT; Ebselen 1 μM): 10 µM
MIC of silver in the presence of ebselen (E. coli DHB4 WT; Ebselen 2 μM): 5 µM
MIC of silver in the presence of ebselen (E. coli DHB4 WT; Ebselen 4 μM): 1.25 µM
